Data reported in ChEMBL document CHEMBL1781959, “Synthesis and in vitro antitumor activity of substituted quinazoline and quinoxaline derivatives: search for anticancer agent” (Eur J Med Chem, 2011).

Columns and labels:
Format in all cases: functional
NCI-H460 = assay: Anticancer activity against human NCI-H460 cells assessed as cell growth promotion at 10^-5 M after 48 hrs by SRB assay relative to control
HCT-15 = assay: Anticancer activity against human HCT15 cells assessed as cell growth promotion at 10^-5 M after 48 hrs by SRB assay relative to control
M14 = assay: Anticancer activity against human M14 cells assessed as cell growth promotion at 10^-5 M after 48 hrs by SRB assay relative to control
OVCAR-5 = assay: Anticancer activity against human OVCAR5 cells assessed as cell growth promotion at 10^-5 M after 48 hrs by SRB assay relative to control
Malme-3M = assay: Anticancer activity against human MALME-3M cells assessed as cell growth promotion at 10^-5 M after 48 hrs by SRB assay relative to control
[1] = Anticancer activity against human Hs 578T cells assessed as cell growth promotion at 10^-5 M after 48 hrs by SRB assay relative to control
HCT-116 = assay: Anticancer activity against human HCT116 cells assessed as cell growth promotion at 10^-5 M after 48 hrs by SRB assay relative to control
SK-MEL-5 = assay: Anticancer activity against human SK-MEL-5 cells assessed as cell growth promotion at 10^-5 M after 48 hrs by SRB assay relative to control
SK-OV-3 = assay: Anticancer activity against human SKOV3 cells assessed as cell growth promotion at 10^-5 M after 48 hrs by SRB assay relative to control
SN12C = assay: Anticancer activity against human SN12C cells assessed as cell growth promotion at 10^-5 M after 48 hrs by SRB assay relative to control
SW-620 = assay: Anticancer activity against human SW620 cells assessed as cell growth promotion at 10^-5 M after 48 hrs by SRB assay relative to control
A549 = assay: Anticancer activity against human A549 cells assessed as cell growth promotion at 10^-5 M after 48 hrs by SRB assay relative to control
UACC-257 = assay: Anticancer activity against human UACC257 cells assessed as cell growth promotion at 10^-5 M after 48 hrs by SRB assay relative to control
NCI-H23 = assay: Anticancer activity against human NCI-H23 cells assessed as cell growth promotion at 10^-5 M after 48 hrs by SRB assay relative to control
CCRF-CEM = assay: Anticancer activity against human CCRF-CEM cells assessed as cell growth promotion at 10^-5 M after 48 hrs by SRB assay relative to control
NCI-H322M = assay: Anticancer activity against human NCI-H322M cells assessed as cell growth promotion at 10^-5 M after 48 hrs by SRB assay relative to control
HCC 2998 = assay: Anticancer activity against human HCC2998 cells assessed as cell growth promotion at 10^-5 M after 48 hrs by SRB assay relative to control
RXF 393 = assay: Anticancer activity against human RXF393 cells assessed as cell growth promotion at 10^-5 M after 48 hrs by SRB assay relative to control
MDA-MB-468 = assay: Anticancer activity against human MDA-MB-468 cells assessed as cell growth promotion at 10^-5 M after 48 hrs by SRB assay relative to control
UO-31 = assay: Anticancer activity against human UO31 cells assessed as cell growth promotion at 10^-5 M after 48 hrs by SRB assay relative to control
OVCAR-8 = assay: Anticancer activity against human OVCAR8 cells assessed as cell growth promotion at 10^-5 M after 48 hrs by SRB assay relative to control
KM12 = assay: Anticancer activity against human KM12 cells assessed as cell growth promotion at 10^-5 M after 48 hrs by SRB assay relative to control
SF-539 = assay: Anticancer activity against human SF539 cells assessed as cell growth promotion at 10^-5 M after 48 hrs by SRB assay relative to control
T47D = assay: Anticancer activity against human T47D cells assessed as cell growth promotion at 10^-5 M after 48 hrs by SRB assay relative to control
SF-268 = assay: Anticancer activity against human SF268 cells assessed as cell growth promotion at 10^-5 M after 48 hrs by SRB assay relative to control
EKVX = assay: Anticancer activity against human EKVX cells assessed as cell growth promotion at 10^-5 M after 48 hrs by SRB assay relative to control
MDA-MB-435 = assay: Anticancer activity against human MDA-MB-435 cells assessed as cell growth promotion at 10^-5 M after 48 hrs by SRB assay relative to control
786-0 = assay: Anticancer activity against human 786-0 cells assessed as cell growth promotion at 10^-5 M after 48 hrs by SRB assay relative to control
SNB-19 = assay: Anticancer activity against human SNB19 cells assessed as cell growth promotion at 10^-5 M after 48 hrs by SRB assay relative to control
K562 = assay: Anticancer activity against human K562 cells assessed as cell growth promotion at 10^-5 M after 48 hrs by SRB assay relative to control
LOX IMVI = assay: Anticancer activity against human LOXIMVI cells assessed as cell growth promotion at 10^-5 M after 48 hrs by SRB assay relative to control
SK-MEL-28 = assay: Anticancer activity against human SK-MEL-28 cells assessed as cell growth promotion at 10^-5 M after 48 hrs by SRB assay relative to control
SF-295 = assay: Anticancer activity against human SF295 cells assessed as cell growth promotion at 10^-5 M after 48 hrs by SRB assay relative to control
A498 = assay: Anticancer activity against human A498 cells assessed as cell growth promotion at 10^-5 M after 48 hrs by SRB assay relative to control
MCF7 = assay: Anticancer activity against human MCF7 cells assessed as cell growth promotion at 10^-5 M after 48 hrs by SRB assay relative to control
MOLT-4 = assay: Anticancer activity against human MOLT4 cells assessed as cell growth promotion at 10^-5 M after 48 hrs by SRB assay relative to control
PC-3 = assay: Anticancer activity against human PC3 cells assessed as cell growth promotion at 10^-5 M after 48 hrs by SRB assay relative to control
UACC-62 = assay: Anticancer activity against human UACC62 cells assessed as cell growth promotion at 10^-5 M after 48 hrs by SRB assay relative to control
ACHN = assay: Anticancer activity against human ACHN cells assessed as cell growth promotion at 10^-5 M after 48 hrs by SRB assay relative to control
NCI/ADR-RES = assay: Anticancer activity against human NCI/ADR-RES cells assessed as cell growth promotion at 10^-5 M after 48 hrs by SRB assay relative to control

Row | Structure (SMILES) | Activity (NCI-H460) | Activity (HCT-15) | Activity (M14) | Activity (OVCAR-5) | Activity (Malme-3M) | Activity [1] | Activity (HCT-116) | Activity (SK-MEL-5) | Activity (SK-OV-3) | Activity (SN12C) | Activity (SW-620) | Activity (A549) | Activity (UACC-257) | Activity (NCI-H23) | Activity (CCRF-CEM) | Activity (NCI-H322M) | Activity (HCC 2998) | Activity (RXF 393) | Activity (MDA-MB-468) | Activity (UO-31) | other results
1 | N#Cc1ccc(/C=C/c2ccc(NC(=O)c3ccccc3NC(=O)c3ccco3)cc2)cc1 | 116% | 104% | 112% | 105% | 108% | 100% | 103% | 103% | 111% | 104% | 106% | 101% | 103% | 94.62% | 96.43% | 102% | 105% | 114% | 108% | 84.8% | Activity (OVCAR-8): 106%; Activity (KM12): 107%; Activity (SF-539): 102%; Activity (T47D): 103%; Activity (SF-268): 104%; Activity (EKVX): 88.81%; Activity (MDA-MB-435): 108%; Activity (786-0): 115%; Activity (SNB-19): 111%; Activity (K562): 94.72%; Activity (LOX IMVI): 109%; Activity (SK-MEL-28): 113%; Activity (SF-295): 114%; Activity (A498): 94.62%; Activity (MCF7): 98.4%; Activity (MOLT-4): 99.1%; Activity (PC-3): 109%; Activity (UACC-62): 99%; Activity (ACHN): 104%; Activity (NCI/ADR-RES): 109%
2 | O=C(Nc1ccccc1C(=O)Nc1ccc(/C=C/c2ccc(Cl)cc2)cc1)c1ccco1 | 107% | 109% | 107% | 108% | 115% | 113% | 108% | 105% | 116% | 103% | 106% | 102% | 112% | 95.98% | 103% | 110% | 96.83% | 117% | 108% | 83.88% | Activity (OVCAR-8): 100%; Activity (KM12): 110%; Activity (SF-539): 97.41%; Activity (T47D): 106%; Activity (SF-268): 107%; Activity (EKVX): 80.41%; Activity (MDA-MB-435): 101%; Activity (786-0): 103%; Activity (SNB-19): 107%; Activity (K562): 95.66%; Activity (LOX IMVI): 94.63%; Activity (SK-MEL-28): 111%; Activity (SF-295): 122%; Activity (A498): 69.42%; Activity (MCF7): 98.82%; Activity (MOLT-4): 100%; Activity (PC-3): 115%; Activity (UACC-62): 101%; Activity (ACHN): 100%; Activity (NCI/ADR-RES): 104%
3 | O=c1c2ccccc2nc(-c2ccco2)n1/N=C/c1ccccc1Cl | 28.38% | 62.36% | 87.98% | 37.89% | 78.64% | 83.85% | 24.88% | 48.82% | 25.85% | 36.81% | 34.38% | 38.12% | 82.72% | 64.87% | 83.12% | 36.23% | 34.89% | 82.73% | 78.92% | 62.12% | Activity (OVCAR-8): 26.87%; Activity (KM12): 26.67%; Activity (SF-539): 24.89%; Activity (T47D): 62.59%; Activity (SF-268): 72.86%; Activity (EKVX): 64.12%; Activity (MDA-MB-435): 90.21%; Activity (786-0): 26.39%; Activity (SNB-19): 62.14%; Activity (K562): 101.3%; Activity (LOX IMVI): 34.24%; Activity (SK-MEL-28): 38.98%; Activity (SF-295): 52.12%; Activity (A498): 36.82%; Activity (MCF7): 63.86%; Activity (MOLT-4): 99.12%; Activity (PC-3): 78.23%; Activity (UACC-62): 62.82%; Activity (ACHN): 23.89%; Activity (NCI/ADR-RES): 12.24%
